# Test results reported in PubChem BioAssay AID179 (DTP/NCI, 2004).
# Where “and” joins values, the source holds several entries; their conditions need not be identical. Equal values may be shown once. Calls of active or inactive are those of the source.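 The calls were made as follows: active = compounds giving half or more protection of infected cells from virus-caused growth loss, again on retest; inactive = the rest.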
# Test system: CEM cells HIV-1 protection, formazan growth assay
# Assay: NCI AIDS Antiviral Assay
# Conditions: for IC50: measured here: growth of uninfected CEM cells
# Outline: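 Soluble formazan readout of cell growth; CEM cells ± HIV-1; 5 drug concs. ≥50% protection → retest; ≥50% again = moderately active; reproducible 100% = confirmed active.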
SMILES,outcome,EC50,IC50
O=C(Nc1ccc(Cl)c(Cl)c1)O/N=C\c1c(Cl)ccc([N+](=O)[O-])c1Cl,inactive,–,–
N=C(N)SCN1C(=O)c2ccccc2C1=O,–,> 200 µM,> 200 µM
Cc1ccc(C)c(NC(=O)C(=O)C2C(=O)C3=C(CC2(C)C)Nc2ccccc2S3)c1 (stereo unspecified),–,> 85.1 µM,> 85.1 µM
CC(=O)NC1(C)C(C)C2CC1C(C)C2(C)C (stereo unspecified),–,> 85.1 µM,> 85.1 µM
CN(C)c1ccc(/C=C(\C#N)C(=O)O)cc1,–,> 437 µM,219 µM
c1ccc(C2N3CCCCC3[C@@H]3c4[nH]c5ccccc5c4CCN23)nc1 (stereo partly specified),–,> 105 µM,> 105 µM
O=C(O)Cc1[nH]c(=O)[nH]c(=O)c1CCl,–,> 100 µM,> 100 µM
CCOC(=O)NC(Nc1ncn(C(NC(=O)OCC)(C(F)(F)F)C(F)(F)F)n1)(C(F)(F)F)C(F)(F)F,–,> 200 µM,> 200 µM
Cc1cn(C2CCC(CO)(C(F)(F)F)O2)c(=O)[nH]c1=O (stereo unspecified),–,> 200 µM,> 200 µM
O=C1C=C2CC3c4[nH]c5ccccc5c4CCN3CC2CC1 (stereo unspecified),–,> 85.1 µM,43.7 µM
NC1=NCCS1,–,> 70.8 µM,> 70.8 µM and 32.4 µM
Cc1nnc2c3nccnc3c(Cl)nn12,–,> 200 µM,2.34 µM
CCOC(=O)C(Cc1ccc2c(c1)CCC2)(Cc1ccc2c(c1)CCC2)C(=O)OCC,–,> 200 µM,69.2 µM
CC(NC(=O)OCc1ccccc1)C(=O)NC(C(=O)O)C(C)C (stereo unspecified),–,> 776 µM,> 776 µM
NC(N)=NCCCC(NC(=O)OCCCCCn1ccc(N)nc1=O)C(=O)O (stereo unspecified),–,> 200 µM,> 200 µM
COC(=O)C1(C)CCCC2(C)c3cc(OC)ccc3C(=O)C(Cl)C12 (stereo unspecified),–,> 200 µM,30.2 µM
CC(O)C(=O)[O][Pb]([CH3])([CH3])[CH3] (stereo unspecified),–,> 200 µM,> 200 µM
O=C(O)C1CCC(c2ccc(F)cc2F)N1 (stereo unspecified),–,> 200 µM,> 200 µM
CN(C)CCNC(=O)Cn1ccc(=O)c2ccc([N+](=O)[O-])cc21,–,> 200 µM,> 200 µM
CC1OC(OCC2COC(O)(Oc3c(-c4ccc(O)c(O)c4)oc4cc(O)cc(O)c4c3=O)C(O)C2O)C(O)C(O)C1O (stereo unspecified),inactive,–,–
CC1CN(C(=O)OCC23COC4(C)CCC(C)(OC2)N34)CC(C)O1 (stereo unspecified),–,> 200 µM,> 200 µM
O=C1C(SCCO)=C(SCCO)C(=O)c2[nH]cnc21,–,> 437 µM,42.7 µM
COc1ccc(/C=C2\SC(=S)N(/C=C3\C(=O)N(c4ccccc4)N=C3C)C2=O)cc1OC,–,> 200 µM,28.2 µM
CC1CC/C(=C\c2ccc(N(C)C)cc2)C2=C1C(c1ccc(N(C)C)cc1)NC(=S)N2 (stereo unspecified),–,> 100 µM,> 100 µM

SMILES,outcome,EC50,IC50
CC(=O)OC1C(OC(C)=O)[C@@]2(C)C(C(O)[C@@H]3C2C(C)C=C2OC(=O)[C@@](C)(O)[C@@]23C)[C@H]2C1[C@]1(C)C(C[C@@H]3O[C@@H]3C1OC(C)=O)C(=O)[C@@H]2O (stereo partly specified),inactive,–,–
Nc1ncnc2c1ncn2[C@H]1CC[C@]2(CO)C[C@H]12,–,> 25.1 µM,> 25.1 µM
Cc1c(N2CCOCC2)nc2ccc(Cl)cc2c1-c1ccccc1,–,> 4.27 µM,> 4.27 µM
CCn1c(=O)c2nc(SC)sc2n(-c2ccc(C)cc2)c1=O,inactive,–,–
CC(=O)OC1CCn2nnc(CO)c21 (stereo unspecified),inactive,–,–
NCCC1([N+](=O)[O-])CCNCC1,–,> 200 µM,> 200 µM
O=C(CCc1ccc(O)c(O)c1)NCCc1cc(O)cc(O)c1,inactive,–,–
CCCCCC=C(c1cc(Cl)c(O)c(C(=O)O)c1)c1cc(Cl)c(O)c(C(=O)O)c1,–,> 95.5 µM,> 95.5 µM
O=C(NCP(=O)(Oc1ccccc1)Oc1ccccc1)OCc1ccccc1,–,> 200 µM,162 µM
Cc1ccc(C)c(C[P+](c2ccccc2)(c2ccccc2)c2ccccc2)c1,–,> 200 µM,0.977 µM
Cc1ccc2nc(C(=O)O)c(=O)[nH]c2c1,inactive,–,–
N#CNC(=NCCO)NCCO,–,> 525 µM,> 525 µM
CCC(=O)c1c(O)c2ccccc2oc1=O,–,> 200 µM,> 100 µM
CCO/N=C(/N)c1ncn(Cc2ccccc2)c1NCC(OCC)OCC,–,> 661 µM,339 µM
COc1ccc(-c2c(C(C)=O)c(-c3ccccc3)n(C3OC(CO)C(O)C(O)C3O)c(=S)c2C#N)cc1 (stereo unspecified),–,> 200 µM,> 200 µM
N=C(N)c1ccc(N=Nc2ccc(N)cc2N)cc1,–,> 200 µM,51.3 µM
N#Cc1ccccc1-c1nc2c3c(c(N)ccc3n1)C(=O)c1ccccc1-2,–,> 200 µM,40.7 µM
CN(/N=C/c1cccc2cccnc12)c1ccc([N+](=O)[O-])cc1[N+](=O)[O-],inactive,–,–
c1ccc2c(C(c3c[nH]c4ccccc34)c3c[nH]c4ccccc34)c[nH]c2c1,–,0.0631 µM,19.1 µM
COc1c2c3c(ccnc3c3ccccc13)C(=O)N2C,–,> 200 µM,9.55 µM
Cc1ccc(S(=O)(=O)NCCSCCSCCNS(=O)(=O)c2ccc(C)cc2)cc1,–,> 38.9 µM,> 38.9 µM
CCOP(=O)(Cc1c(Cl)c(Cl)c(CP(=O)(OCC)OCC)c(Cl)c1Cl)OCC,–,> 200 µM,26.9 µM
O=C1c2ccccc2C2(O)Nc3cc(O)ccc3C12O (stereo unspecified),–,> 933 µM,661 µM
